Measured values: the supplement of paper PMC10307832

How the values were obtained:
Assay in all cases: relative viability (nuclei count vs DMSO), 5 days (fraction); higher = more cells survive
BEN = test system: BEN
In short: (§1)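 Each reported value is a median over duplicate plates. It expresses relative viability: treated-well nuclei count divided by vehicle-well nuclei count. Lung cancer cell lines in 1536-well plates were dosed by pin tool a day after seeding, alone with one drug or with a fixed anchor-drug dose plus five library-drug doses (not always all listed) in √10 steps, and nuclei were counted after 5 days.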

HCC-15 = test system: HCC-15
In short: as §1

HCC-78 = test system: HCC-78
In short: as §1

LC-2-ad = test system: LC-2-ad
In short: as §1

LCLC-97TM1 = test system: LCLC-97TM1
In short: as §1

LK-2 = test system: LK-2
In short: as §1

LU99A = test system: LU99A
In short: as §1

LXF-289 = test system: LXF-289
In short: as §1

NCI-H1651 = test system: NCI-H1651
In short: as §1

NCI-H1666 = test system: NCI-H1666
In short: as §1

NCI-H1944 = test system: NCI-H1944
In short: as §1

NCI-H2087 = test system: NCI-H2087
In short: as §1

NCI-H322M = test system: NCI-H322M
In short: as §1

NCI-H358 = test system: NCI-H358
In short: as §1

NCI-H596 = test system: NCI-H596
In short: as §1

NCI-H650 = test system: NCI-H650
In short: as §1

NCI-H661 = test system: NCI-H661
In short: as §1

NCI-H838 = test system: NCI-H838
In short: as §1

PC-3 [JPC-3] = test system: PC-3 [JPC-3]
In short: as §1

SK-MES-1 = test system: SK-MES-1
In short: as §1

UMC-11 = test system: UMC-11
In short: as §1

NC(=O)Nc1cc(-c2cccc(F)c2)sc1C(=O)N[C@H]1CCCNC1 [AZD7762] + CS(=O)(=O)CCNCc1ccc(-c2ccc3ncnc(Nc4ccc(OCc5cccc(F)c5)c(Cl)c4)c3c2)o1 [Lapatinib] (partner 2 µM) was tested, and the relative viability (BEN; first compound 0.01 µM) was 0.788, the relative viability (BEN; first compound 0.03162 µM) was 0.623 and the relative viability (BEN; first compound 0.1 µM) was 0.566. For the same compound, the relative viability (BEN; first compound 0.3162 µM) was 0.833, the relative viability (BEN; first compound 1 µM) was 0.488 and the relative viability (HCC-15; first compound 0.01 µM) was 0.842. It also gave a relative viability (HCC-15; first compound 0.03162 µM) of 0.823, a relative viability (HCC-15; first compound 0.1 µM) of 0.807 and a relative viability (HCC-15; first compound 0.3162 µM) of 0.782. For the same compound, the relative viability (HCC-15; first compound 1 µM) was 0.907, the relative viability (HCC-78; first compound 0.01 µM) was 0.863 and the relative viability (HCC-78; first compound 0.03162 µM) was 0.791. It also gave a relative viability (HCC-78; first compound 0.1 µM) of 0.842, a relative viability (HCC-78; first compound 0.3162 µM) of 0.653 and a relative viability (HCC-78; first compound 1 µM) of 0.304. The relative viability (LC-2-ad; first compound 0.01 µM) was 1.05, the relative viability (LC-2-ad; first compound 0.03162 µM) was 1.04 and the relative viability (LC-2-ad; first compound 0.1 µM) was 0.47. It also gave a relative viability (LC-2-ad; first compound 0.3162 µM) of 0.392, a relative viability (LC-2-ad; first compound 1 µM) of 0.258 and a relative viability (LCLC-97TM1; first compound 0.01 µM) of 0.834. The relative viability (LCLC-97TM1; first compound 0.03162 µM) was 1.13, the relative viability (LCLC-97TM1; first compound 0.1 µM) was 0.821 and the relative viability (LCLC-97TM1; first compound 0.3162 µM) was 0.555. The relative viability (LCLC-97TM1; first compound 1 µM) was 0.609, the relative viability (LK-2; first compound 0.01 µM) was 1.02 and the relative viability (LK-2; first compound 0.03162 µM) was 1.03. For the same compound, the relative viability (LK-2; first compound 0.1 µM) was 0.759, the relative viability (LK-2; first compound 0.3162 µM) was 0.828 and the relative viability (LK-2; first compound 1 µM) was 0.573. The relative viability (LU99A; first compound 0.01 µM) was 0.954, the relative viability (LU99A; first compound 0.03162 µM) was 1.1 and the relative viability (LU99A; first compound 0.1 µM) was 0.952. The relative viability (LU99A; first compound 0.3162 µM) was 0.789, the relative viability (LU99A; first compound 1 µM) was 0.416 and the relative viability (LXF-289; first compound 0.01 µM) was 0.906. The relative viability (LXF-289; first compound 0.03162 µM) was 0.909, the relative viability (LXF-289; first compound 0.1 µM) was 0.973 and the relative viability (LXF-289; first compound 0.3162 µM) was 0.912. The relative viability (LXF-289; first compound 1 µM) was 0.983, the relative viability (NCI-H1651; first compound 0.01 µM) was 0.93 and the relative viability (NCI-H1651; first compound 0.03162 µM) was 0.832. For the same compound, the relative viability (NCI-H1651; first compound 0.1 µM) was 0.909, the relative viability (NCI-H1651; first compound 0.3162 µM) was 0.607 and the relative viability (NCI-H1651; first compound 1 µM) was 0.195. For the same compound, the relative viability (NCI-H1666; first compound 0.01 µM) was 0.671, the relative viability (NCI-H1666; first compound 0.03162 µM) was 0.821 and the relative viability (NCI-H1666; first compound 0.1 µM) was 0.73. It also gave a relative viability (NCI-H1666; first compound 0.3162 µM) of 0.629, a relative viability (NCI-H1666; first compound 1 µM) of 0.708 and a relative viability (NCI-H1944; first compound 0.01 µM) of 0.977. The relative viability (NCI-H1944; first compound 0.03162 µM) was 0.876, the relative viability (NCI-H1944; first compound 0.1 µM) was 1.01 and the relative viability (NCI-H1944; first compound 0.3162 µM) was 0.846. It also gave a relative viability (NCI-H1944; first compound 1 µM) of 1.01, a relative viability (NCI-H2087; first compound 0.01 µM) of 1.23 and a relative viability (NCI-H2087; first compound 0.03162 µM) of 1.01. For the same compound, the relative viability (NCI-H2087; first compound 0.1 µM) was 1.01, the relative viability (NCI-H2087; first compound 0.3162 µM) was 1.24 and the relative viability (NCI-H2087; first compound 1 µM) was 1.16. The relative viability (NCI-H322M; first compound 0.01 µM) was 0.627, the relative viability (NCI-H322M; first compound 0.03162 µM) was 0.675 and the relative viability (NCI-H322M; first compound 0.1 µM) was 0.532. The relative viability (NCI-H322M; first compound 0.3162 µM) was 0.535, the relative viability (NCI-H322M; first compound 1 µM) was 0.456 and the relative viability (NCI-H358; first compound 0.01 µM) was 0.478. It also gave a relative viability (NCI-H358; first compound 0.03162 µM) of 0.537, a relative viability (NCI-H358; first compound 0.1 µM) of 0.497 and a relative viability (NCI-H358; first compound 0.3162 µM) of 0.451. The relative viability (NCI-H358; first compound 1 µM) was 0.327, the relative viability (NCI-H596; first compound 0.01 µM) was 1.11 and the relative viability (NCI-H596; first compound 0.03162 µM) was 1.01. The relative viability (NCI-H596; first compound 0.1 µM) was 1.13, the relative viability (NCI-H596; first compound 0.3162 µM) was 1.11 and the relative viability (NCI-H596; first compound 1 µM) was 0.891. It also gave a relative viability (NCI-H650; first compound 0.01 µM) of 1.04, a relative viability (NCI-H650; first compound 0.03162 µM) of 1.11 and a relative viability (NCI-H650; first compound 0.1 µM) of 0.813. The relative viability (NCI-H650; first compound 0.3162 µM) was 0.747, the relative viability (NCI-H650; first compound 1 µM) was 0.827 and the relative viability (NCI-H661; first compound 0.01 µM) was 0.6. It also gave a relative viability (NCI-H661; first compound 0.03162 µM) of 0.546, a relative viability (NCI-H661; first compound 0.1 µM) of 0.512 and a relative viability (NCI-H661; first compound 0.3162 µM) of 0.405. It also gave a relative viability (NCI-H661; first compound 1 µM) of 0.28, a relative viability (NCI-H838; first compound 0.01 µM) of 0.917 and a relative viability (NCI-H838; first compound 0.03162 µM) of 0.908. For the same compound, the relative viability (NCI-H838; first compound 0.1 µM) was 1.07, the relative viability (NCI-H838; first compound 0.3162 µM) was 0.903 and the relative viability (NCI-H838; first compound 1 µM) was 0.268. The relative viability (PC-3 [JPC-3]; first compound 0.01 µM) was 0.473, the relative viability (PC-3 [JPC-3]; first compound 0.03162 µM) was 0.447 and the relative viability (PC-3 [JPC-3]; first compound 0.1 µM) was 0.372. It also gave a relative viability (PC-3 [JPC-3]; first compound 0.3162 µM) of 0.46, a relative viability (PC-3 [JPC-3]; first compound 1 µM) of 0.432 and a relative viability (SK-MES-1; first compound 0.01 µM) of 0.434. It also gave a relative viability (SK-MES-1; first compound 0.03162 µM) of 0.396, a relative viability (SK-MES-1; first compound 0.1 µM) of 0.457 and a relative viability (SK-MES-1; first compound 0.3162 µM) of 0.468. The relative viability (SK-MES-1; first compound 1 µM) was 0.469, the relative viability (UMC-11; first compound 0.01 µM) was 0.936 and the relative viability (UMC-11; first compound 0.03162 µM) was 1.01. The relative viability (UMC-11; first compound 0.1 µM) was 0.871, the relative viability (UMC-11; first compound 0.3162 µM) was 0.743 and the relative viability (UMC-11; first compound 1 µM) was 0.398.
